Experimental data reported in US5457106A, “Pyridine derivatives, their production and use” (Takeda Chemical Industries, Ltd., priority 1991, dated 1995).
Counter-ions that a name gives are not always drawn. Like-named read-outs stand apart in the source and are kept apart here.

What was measured:
[1] = biological target: T1, 5-Lipoxygenase (Rattus norvegicus, UniProt P12527); test: 5-Lipoxygenase inhibitory activity in rat basophilic leukemia cells; format: cell-based
T1 construct: rat basophilic leukemia cell suspension; endogenous in cells
T1 sequence (P12527 1-673): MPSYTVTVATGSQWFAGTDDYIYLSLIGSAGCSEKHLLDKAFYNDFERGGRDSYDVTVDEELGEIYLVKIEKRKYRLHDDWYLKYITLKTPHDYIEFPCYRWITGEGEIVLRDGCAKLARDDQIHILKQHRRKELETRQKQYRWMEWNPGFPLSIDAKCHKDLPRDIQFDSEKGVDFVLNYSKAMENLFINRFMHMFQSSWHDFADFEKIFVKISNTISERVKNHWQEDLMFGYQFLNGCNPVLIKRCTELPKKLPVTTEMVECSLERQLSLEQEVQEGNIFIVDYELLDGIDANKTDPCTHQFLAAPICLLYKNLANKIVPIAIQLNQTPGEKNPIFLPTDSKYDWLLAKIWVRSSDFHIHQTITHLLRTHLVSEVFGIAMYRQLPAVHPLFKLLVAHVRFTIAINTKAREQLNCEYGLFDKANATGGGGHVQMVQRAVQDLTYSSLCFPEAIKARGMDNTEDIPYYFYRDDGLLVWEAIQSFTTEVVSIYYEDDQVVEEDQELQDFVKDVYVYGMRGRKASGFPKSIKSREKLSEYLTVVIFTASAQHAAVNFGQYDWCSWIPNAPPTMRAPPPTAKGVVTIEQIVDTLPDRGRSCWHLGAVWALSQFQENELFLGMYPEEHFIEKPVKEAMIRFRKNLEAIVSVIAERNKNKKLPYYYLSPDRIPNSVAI
Method: 5-Lipoxygenase Inhibitory Activity […] Then, 0.1 ml of mast cell medium containing 50 μg of arachidonic acid and 1 μg of calcium ionophore (A-23187) were added and the mixture was allowed to stand at 37° C. for 15 minutes. Ethanol (1 ml) was added thereto and the mixture was shaken well, and filtered (Membrane filter, 0.45 μm). […] As a control, the measurement was carried out according to the same manner except that 0.01 ml of the solvent used for dissolving the test compound was used in place of the test compound. The inhibitory percentage (%) was calculated from the following equation to obtain IC50.

[2] = system: ART (antigen-responding T-cell); test: In vitro ART (antigen-responding T-cell) proliferation test; format: cell-based, Lewis rat; details: Rattus norvegicus, T-cell, read-out: % Inhibition of ART growth
[3] = system: Rat carrageenin pedal edema; test: Rat carrageenin pedal edema inhibitory activity; format: in vivo, rat (Jcl: SD); details: Rattus norvegicus, po, 3 h, 50 mg/kg, orally, 3 hours after carrageenin; read-out: Inhibitory percentage (carrageenin pedal edema)
Method: Rat Carrageenin Pedal Edema Inhibitory Activity A Jcl: SD male rat (6 weeks old, weight 160-220 g) was used. After the mesurement of the volume of the dexter hind limb foot pad, a test compound suspended in 5% gum arabic solution was administered orally. Immediately after the administration, water was further administered orally so that the total administration volume of liquid became 5 ml/rat. After one hour, 0.05 ml of 1% carrageenin suspension in physiological saline was injected subcutaneously in the foot pad to induce edema [Winter, […]. and Nuss, G. W.: Proc. Soc. exp. […] Three hours after injection of carrageenin, the volume of the dexter limb was measured, and the edema volume was calculated by the difference between the volume after injection and the volume prior to injection.

[4] = system: Mouse phenylquinone writhing; test: Mouse phenylquinone writhing inhibitory activity; format: in vivo, mouse (Slc: ICR); details: Mus musculus, po, 20 min, orally, read-out: Inhibitory percentage (phenylquinone writhing)
In short: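 Male ICR mice (4 weeks, 17–24 g) dosed orally with compound suspended in 5% gum arabic. After 30 min, 0.02% phenylquinone (0.1 ml/10 g) given i.p.; writhing and stretching responses counted over 20 min.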

[5] = biological target: T2, cyclooxygenase (Rattus norvegicus, UniProt Q63921); test: Cyclooxygenase inhibitory activity (HHT formation from arachidonic acid in rat platelet-rich plasma); format: cell-based, rat (Jcl:wistar)
T2 construct: from tissue; host or cells: platelets in platelet-rich plasma from rat abdominal aorta blood (Jcl:wistar, male)
T2 sequence (Q63921 27-602): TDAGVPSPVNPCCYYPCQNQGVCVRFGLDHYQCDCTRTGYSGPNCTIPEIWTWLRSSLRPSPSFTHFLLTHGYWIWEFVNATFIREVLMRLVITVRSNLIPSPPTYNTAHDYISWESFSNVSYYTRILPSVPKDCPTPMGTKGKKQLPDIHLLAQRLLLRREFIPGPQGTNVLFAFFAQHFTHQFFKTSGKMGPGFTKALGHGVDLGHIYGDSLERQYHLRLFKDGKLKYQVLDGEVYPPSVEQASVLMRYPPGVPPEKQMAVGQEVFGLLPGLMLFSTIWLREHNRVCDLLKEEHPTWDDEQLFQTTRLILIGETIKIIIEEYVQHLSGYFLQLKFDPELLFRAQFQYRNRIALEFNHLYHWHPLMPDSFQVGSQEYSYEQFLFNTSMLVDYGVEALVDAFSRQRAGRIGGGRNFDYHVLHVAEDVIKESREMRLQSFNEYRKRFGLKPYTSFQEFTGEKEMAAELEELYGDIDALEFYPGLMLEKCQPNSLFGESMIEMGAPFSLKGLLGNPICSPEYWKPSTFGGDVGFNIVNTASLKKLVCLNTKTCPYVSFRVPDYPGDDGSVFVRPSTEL

[6] = system: brewer's yeast induced pyrexia; test: Antipyretic activity (brewer's yeast induced pyrexia); format: in vivo, rat (DS line); details: 50 mg/kg, orally; for Antipyretic activity, .increment. °C.: at peak time
Method: Antipyretic Activity Six male DS line rats, 7 weeks old, weighing 200 to 240 g (Nihon Clea) per one group were used. According to the method of Winder et al. (J. Pharmac. Exp. Ther. 138: 405 (1963)), a suspension of 15% brewer's yeast (Sigma) in physiological saline (1 ml/100 g, b.w.) was injected subcutaneously at 16 hours before measurement of the body temperature to induce pyrexia. After injection of yeast, only water was provided, and each rat was bred separately in a five duplicate cage. At 16, 17 and 18 hours after yeast injection, the rectal temperature was measured by a thermistor thermometer (Takara Kogyo K.K.), and this was taken as the basal body temperature. […] Animals having the body temperature of not lower than 38.5° C. at 18 hours after yeast injection were selected, and a test compound was administered orally (1 ml/100 g, b.w.). As a control, only the solvent was provided. Upon administration, the body temperature of the control group and that of the test compound-administered group were adjusted to the same temperature. The rectal temperature was measured every hour till five hours after administration.

[7] = 5-HETE, read-out: 5-Lipoxygenase inhibitory activity, 5-HETE IC50
[8] = LTB4, read-out: 5-Lipoxygenase inhibitory activity, LTB4 IC50

SMILES	IC50 [1, 7] [µM]	IC50 [1, 8] [µM]	IC50 [5] [µM]	inhibition at 1 µM [2] [%]	inhibition at 10 µM [2] [%]	inhibition in vivo at 50 mg/kg [3] [%]	inhibition in vivo at 50 mg/kg [4] [%]	inhibition in vivo at 100 mg/kg ([4]; 100 mg/kg) [%]	Antipyretic activity, peak time [6] [h]	Antipyretic activity, .increment. °C. [6] [°C]
CCCCCCCC/C=C\CCCCCCCC(=O)NCCCSc1ccncc1 [Example 21, 4-[3-(oleoylamino)propylthio]pyridine]	21.5	16.4	–	–	–	–	–	–	–	–
O=C(c1ccccc1)N(CCCSc1ccncc1)Cc1ccccc1 [Example 77, 4-[3-(N-benzyl-N-benzoylamino)propylthio]pyridine hydrochloride]	3.5	3.2	–	28	85	–	62	–	–	–
CCCCCCCCCC(=O)NCCCSc1ccccn1 [Example 3, 2-[3-(caprylamino)propylthio]pyridine]	22.2	17.5	–	–	–	–	–	–	–	–
CCCCCCCCCCCC(=O)NCCCSc1ccncc1 [Example 17, 4-[3-(lauroylamino)propylthio]pyridine]	17.5	14.3	1.5	–	–	–	–	–	–	–
CCCCCCCCCC(=O)NCCCSc1ccncc1 [Example 1]	16.8	16.1	1.6	–	–	–	–	61	–	–
O=C(NCCCSc1ccncc1)c1cccs1 [Example 46, 4-[3-(2-thenoylamino)propylthio]pyridine]	–	–	7.9	–	–	39	66	–	4	-4.08
O=C(NCCCSc1ccncc1)c1ccccn1 [Example 42, 4-[3-(2-picolynoylamino)propylthio]pyridine]	–	–	13.1	–	–	34	51	–	1	-0.80
O=C1c2ccccc2C(=O)N1CCSc1ccccn1 [Example 4, 2-(2-phthalimidoethylthio)pyridine]	17.4	11.8	–	–	–	–	–	–	–	–
O=C1c2ccccc2C(=O)N1COc1ccncc1 [Example 65, 4-(phthalimidomethyloxy)pyridine]	–	–	–	–	–	39	80	–	4	-0.62
O=C(NCCCSc1ccncc1)c1cc2ccccc2s1 [Example 57, 4-[3-(thianaphtene-2-carbonylamino)propylthio]pyridine]	–	–	3.6	–	–	35	71	–	4	-1.28
O=C(NCCCSc1ccncc1)c1ccncc1 [Example 43, 4-[3-(4-picolynoylamino)propylthio]pyridine]	–	–	13	–	–	24	48	–	–	–
Cc1ccc(C(=O)NCCCSc2ccncc2)s1 [Example 59, 4-[3-(5-methylthenoylamino)propylthio]pyridine]	–	–	3.5	–	–	35	49	–	–	–
O=C(NCCCSc1ccncc1)c1ccsc1 [Example 54, 4-[3-(3-thiophenecarbonylamino)propylthio]pyridine]	–	–	9	–	–	45	58	–	5	-3.50

Second part, led by results:

IC50 [1, 7] [µM]	IC50 [1, 8] [µM]	IC50 [5] [µM]	SMILES	inhibition at 1 µM [2] [%]	inhibition at 10 µM [2] [%]	inhibition in vivo at 50 mg/kg [3] [%]	inhibition in vivo at 50 mg/kg [4] [%]	inhibition in vivo at 100 mg/kg ([4]; 100 mg/kg) [%]	Antipyretic activity, peak time [6] [h]	Antipyretic activity, .increment. °C. [6] [°C]
2.4	2	–	CCCCCCCCCCCCN(CCCSc1ccncc1)C(=O)C(F)(F)F [Example 94, 4-[3-(N-dodecyl-N-trifluoroacetylamino)propylthio]pyridine]	33	70	–	–	–	–	–
4.6	4.3	–	O=C(c1cc2ccccc2s1)N1CCC(Sc2ccncc2)CC1 [Example 133, 4-[4-(thianaphthene-2-carbonyl)piperidylthio]pyridine]	–	–	27	–	–	–	–
0.044	0.033	–	O=C1c2ccc([N+](=O)[O-])cc2C(=O)N1CSc1ccncc1 [Example 95, 4-[(4-nitrophthalimido)methylthio]pyridine]	20	32	–	–	–	–	–
6.1	5.4	–	O=C(NCCCCSc1ccncc1)c1cc2ccccc2s1 [Example 128, 4-[4-(thianaphthene-2-carbonylamino)butylthio]pyridine]	–	–	–	–	–	–	–
3.8	3.7	–	O=C1SC(=Cc2ccccc2)C(=O)N1CCSc1ccncc1 [Example 155, 4-[2-(5-benzylidene-2,4-thiazolidinedione)ethylthio]pyridine]	4	78	–	–	–	–	–
–	–	3.2	O=C1c2ccccc2CN1CCCOc1ccncc1 [Example 101, 4-[3-(isoindolin-1-on-2-yl)propyloxy]pyridine]	39	12	26	66	–	–	–
–	–	5.1	O=C1c2ccccc2CN1CCSc1ccncc1 [Example 105, 4-[2-(isoindolin-1-on-2-yl)ethylthio]pyridine]	-4	-49	31	59	–	–	–
–	–	4.9	CC(=O)N(CCCSc1ccncc1)Cc1cccs1 [Example 90]	34	49	21	53	–	–	–
2.3	2.2	–	O=c1c2ccccc2n(Cc2ccccc2)c(=O)n1CCCCSc1ccncc1 [Example 149, 3-[4-(4-pyridylthio)butyl]-1-benzylquinazolin-2,4-(1H,3H)-dione]	-10	19	–	–	–	–	–
